This note sets out measurements from PubChem BioAssay AID248 (DTP/NCI, 2004).

The subject of this assay is L1210 leukemia ip in BDF1 mice, survival T/C. Kind of assay: NCI In Vivo Anticancer Drug Screen. Data for tumor model L1210 Leukemia (intraperitoneal) in B6D2F1 (BDF1) mice. Particulars: endpoint: mean survival time, higher = longer survival. In a few lines:
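Antitumor effect is assessed in tumor-bearing animals. Survival in the compound arm is compared with a vehicle-dosed control arm and expressed as their quotient.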

[1] abbreviates: dose: 100.0 mg/kg/injection, schedule: Q01DX001 (ip), vehicle: saline.
The mark [2] stands for this setting: dose: 200.0 mg/kg/injection, schedule: Q01DX001 (ip), vehicle: saline.
Where [3] appears, read: dose: 400.0 mg/kg/injection, schedule: Q01DX001 (ip), vehicle: saline.
Where [4] appears, read: dose: 100.0 mg/kg/injection, schedule: Q04DX002 (ip), vehicle: saline.
The mark [5] stands for this setting: dose: 200.0 mg/kg/injection, schedule: Q04DX002 (ip), vehicle: saline.
Setting [6] is: dose: 50.0 mg/kg/injection, schedule: Q01DX009 (ip), vehicle: saline.
The mark [7] stands for this setting: dose: 75.0 mg/kg/injection, schedule: Q01DX001 (ip), vehicle: saline.
[8] abbreviates: dose: 150.0 mg/kg/injection, schedule: Q01DX001 (ip), vehicle: saline.
Where [9] appears, read: dose: 300.0 mg/kg/injection, schedule: Q01DX001 (ip), vehicle: saline.

“And” between values parts separate entries of the source, which are not always exact repeats. Equal entries are not always repeated. Inconclusive results and toxic doses are left out.

On to `COc1ccccc1C1OC1C(=O)O` (configuration not stated), for which the T/C is 102 % of control under setting [1], 94 % of control under setting [2] and 103 % of control under setting [3].

Regarding `COc1ccc(C(=O)OCc2ccccc2CN2CCCCC2C)cc1` (configuration not stated), the T/C is 94 % of control under setting [4]; 108 % of control under setting [5]; 86 % of control (dose: 400.0 mg/kg/injection, schedule: Q04DX002 (ip), vehicle: saline).

Regarding `CCN(CC)c1ccc(N=Cc2cc(=O)n(C)c3ccccc23)cc1`, the T/C is, setting by setting: (dose: 100.0 mg/kg/injection, schedule: Q01DX001 (ip), vehicle: carboxymethylcellulose (CMC)) 101 % of control; (dose: 200.0 mg/kg/injection, schedule: Q01DX001 (ip), vehicle: carboxymethylcellulose (CMC)) 90 % of control; (dose: 400.0 mg/kg/injection, schedule: Q01DX001 (ip), vehicle: carboxymethylcellulose (CMC)) 88 % of control.

As for `CNC1(C(N)=O)CCCCC1`, the T/C by setting is: under setting [6], 91 % of control; under setting [1], 102 % of control; (dose: 100.0 mg/kg/injection, schedule: Q01DX009 (ip), vehicle: saline) 96 % of control; (dose: 100.0 mg/kg/injection, schedule: Q04DX003 (ip), vehicle: saline) 100 % of control; under setting [2], 107 % of control; (dose: 200.0 mg/kg/injection, schedule: Q01DX009 (ip), vehicle: saline) 106 % of control. Further, the T/C is, setting by setting: (dose: 200.0 mg/kg/injection, schedule: Q04DX003 (ip), vehicle: saline) 100 % of control; under setting [3], 104 % of control; (dose: 400.0 mg/kg/injection, schedule: Q04DX003 (ip), vehicle: saline) 96 % of control.

Take `O=c1[nH]c(=O)c2n[nH]c(C3OCC(O)C3O)c2[nH]1` (configuration not stated): the T/C (dose: 100.0 mg/kg/injection, schedule: Q01DX005 (ip), vehicle: saline) was 94 % of control and the T/C (dose: 200.0 mg/kg/injection, schedule: Q01DX005 (ip), vehicle: saline) was 97 % of control.

On to `Cc1c2cc3c(cc2cc2c4cc5c(cc4cc[n+]12)OCO5)OCO3` (tested in a mixture with another compound), for which the T/C by setting is: (dose: 5.5 mg/kg/injection, schedule: Q04DX003 (ip), vehicle: saline) 110 % of control; (dose: 6.25 mg/kg/injection, schedule: Q01DX009 (ip), vehicle: saline) 110 % of control; (dose: 8.3 mg/kg/injection, schedule: Q04DX003 (ip), vehicle: saline) 108 % of control; (dose: 12.5 mg/kg/injection, schedule: Q01DX009 (ip), vehicle: saline) 89 % of control; (dose: 12.5 mg/kg/injection, schedule: Q04DX003 (ip), vehicle: saline) 98 % of control; (dose: 18.7 mg/kg/injection, schedule: Q04DX003 (ip), vehicle: saline) 93 % of control.

Take `O=c1cc[nH]c2ccccc12`: the T/C (dose: 100.0 mg/kg/injection, schedule: Q01DX001 (ip), vehicle: saline with Tween-80) is 96 % of control; the T/C (dose: 200.0 mg/kg/injection, schedule: Q01DX001 (ip), vehicle: saline with Tween-80) is 97 % of control; the T/C (dose: 400.0 mg/kg/injection, schedule: Q01DX001 (ip), vehicle: saline with Tween-80) is 103 % of control.

For the compound `CCCCCCC1CCC(CCCCCCCC(=O)N2CCN(C)CC2)C(C/C=C/CCCCCCCC(=O)N2CCN(C)CC2)C1CCCCC` (configuration not stated), the T/C is, setting by setting: under setting [7], 94 % of control; under setting [8], 103 % of control; under setting [9], 95 % of control.

On to `CC1=C[S+](c2ccccc2)c2cccc3cc4ccccc4c1c23` (configuration not stated), for which, under “dose: 2.5 mg/kg/injection, schedule: Q01DX009 (ip), vehicle: saline with Tween-80”, the T/C was 119 % of control.

Consider `CC1=NN=S(CC2=C(C(=O)O)N3C(=O)C(NC(=O)C[n+]4cc(=O)o[nH]4)C3SC2)S1` (configuration not stated), for which the T/C (dose: 50.0 mg/kg/injection, schedule: Q04DX002 (ip), vehicle: saline) was 118 % of control; the T/C under setting [4] was 103 % of control; the T/C under setting [5] was 114 % of control.

`CCOC(=O)c1cnc(SC)nc1Nc1ccc(Cl)cc1Cl`: the T/C reads like this: (dose: 100.0 mg/kg/injection, schedule: Q01DX009 (ip), vehicle: Klucel (hydroxypropylcellulose) (HPC)) 103 % of control; (dose: 200.0 mg/kg/injection, schedule: Q01DX009 (ip), vehicle: Klucel (hydroxypropylcellulose) (HPC)) 97 % of control; (dose: 400.0 mg/kg/injection, schedule: Q01DX009 (ip), vehicle: Klucel (hydroxypropylcellulose) (HPC)) 92 % of control.

In the case of `COC(=O)C(CCC1CCCCN1)(c1ccccc1)c1ccccc1` (configuration not stated), the T/C (dose: 35.0 mg/kg/injection, schedule: Q01DX009 (ip), vehicle: saline) is 112 % of control and 119 % of control; the T/C under setting [6] was 120 % of control; the T/C (dose: 110.0 mg/kg/injection, schedule: Q01DX009 (ip), vehicle: saline) was 96 % of control.

With `CCC1C(=O)OC(=O)c2oc3ccc(Cl)cc3c21` (configuration not stated), the T/C runs as follows: (dose: 100.0 mg/kg/injection, schedule: Q01DX001 (ip), vehicle: Klucel (hydroxypropylcellulose) (HPC)) 100 % of control; (dose: 200.0 mg/kg/injection, schedule: Q01DX001 (ip), vehicle: Klucel (hydroxypropylcellulose) (HPC)) 102 % of control; (dose: 400.0 mg/kg/injection, schedule: Q01DX001 (ip), vehicle: Klucel (hydroxypropylcellulose) (HPC)) 94 % of control.

For `CCN(CC)C(=O)N1CCN(c2ccc(OC)cc2)CC1`, the T/C is 94 % of control under setting [7]; 100 % of control (dose: 75.0 mg/kg/injection, schedule: Q04DX003 (ip), vehicle: saline); 100 % of control under setting [8]; 100 % of control (dose: 150.0 mg/kg/injection, schedule: Q04DX003 (ip), vehicle: saline); 91 % of control under setting [9]; 110 % of control (dose: 300.0 mg/kg/injection, schedule: Q04DX003 (ip), vehicle: saline).

Consider `C=C1C(=O)C2(C)OC2(C)C1C(=O)O` (configuration not stated), for which the T/C was 94 % of control (dose: 1.25 mg/kg/injection, schedule: Q01DX009 (ip), vehicle: Klucel (hydroxypropylcellulose) (HPC)); 100 % of control (dose: 2.5 mg/kg/injection, schedule: Q01DX009 (ip), vehicle: Klucel (hydroxypropylcellulose) (HPC)); 105 % of control (dose: 5.0 mg/kg/injection, schedule: Q01DX009 (ip), vehicle: Klucel (hydroxypropylcellulose) (HPC)); 101 % of control (dose: 10.0 mg/kg/injection, schedule: Q01DX009 (ip), vehicle: Klucel (hydroxypropylcellulose) (HPC)).

In the case of `NC(=S)N/N=C1\C=CCCC1`, the T/C (dose: 50.0 mg/kg/injection, schedule: Q01DX001 (ip), vehicle: carboxymethylcellulose (CMC)) was 111 % of control.

`C/C=C/C(=O)Nc1cccc(Cl)c1`: the T/C is, setting by setting: (dose: 100.0 mg/kg/injection, schedule: Q01DX009 (ip), vehicle: other) 92 % of control; (dose: 200.0 mg/kg/injection, schedule: Q01DX009 (ip), vehicle: other) 100 % of control.

As for `CC1CN(C(C)C)C1`, the T/C reads like this: (dose: 100.0 mg/kg/injection, schedule: Q01DX001 (ip), vehicle: acetone) 101 % of control; (dose: 200.0 mg/kg/injection, schedule: Q01DX001 (ip), vehicle: acetone) 97 % of control.

As to `Cn1c(Cl)nc2c(Cl)nc(Cl)nc21`, the T/C is 102 % of control (dose: 6.25 mg/kg/injection, schedule: Q01DX009 (ip), vehicle: Klucel (hydroxypropylcellulose) (HPC)); 102 % of control (dose: 12.5 mg/kg/injection, schedule: Q01DX009 (ip), vehicle: Klucel (hydroxypropylcellulose) (HPC)); 92 % of control under setting [1]; 94 % of control under setting [2]; 94 % of control under setting [3].

Take `CN(Cc1ccccc1)C(=O)Nc1ccccc1`: the T/C (dose: 100.0 mg/kg/injection, schedule: Q04DX002 (ip), vehicle: Klucel (hydroxypropylcellulose) (HPC)) is 98 % of control; the T/C (dose: 200.0 mg/kg/injection, schedule: Q04DX002 (ip), vehicle: Klucel (hydroxypropylcellulose) (HPC)) is 103 % of control; the T/C (dose: 400.0 mg/kg/injection, schedule: Q04DX002 (ip), vehicle: Klucel (hydroxypropylcellulose) (HPC)) was 95 % of control.

For the compound `O=C(CNC(=O)c1cccc(C(=O)NCC(=O)Nc2ccc(C3=NCCN3)cc2)c1)Nc1ccc(C2=NCCN2)cc1`, the T/C was 107 % of control (dose: 4.0 mg/kg/injection, schedule: Q01DX Z (ip), vehicle: water); 104 % of control (dose: 6.0 mg/kg/injection, schedule: Q01DX Z (ip), vehicle: water); 113 % of control (dose: 9.0 mg/kg/injection, schedule: Q01DX Z (ip), vehicle: water); 153 % of control (dose: 12.0 mg/kg/injection, schedule: Q01DX Z (ip), vehicle: water).
